In BindingDB's records for patent US12552799 (Nxera Pharma, 2026):

What was measured:
Adenosine receptor A1 = target: T1, Adenosine receptor A1 (Homo sapiens, UniProt P30542); experiment: Adenosine Receptor Binding Assay
T1 sequence (P30542 whole entry): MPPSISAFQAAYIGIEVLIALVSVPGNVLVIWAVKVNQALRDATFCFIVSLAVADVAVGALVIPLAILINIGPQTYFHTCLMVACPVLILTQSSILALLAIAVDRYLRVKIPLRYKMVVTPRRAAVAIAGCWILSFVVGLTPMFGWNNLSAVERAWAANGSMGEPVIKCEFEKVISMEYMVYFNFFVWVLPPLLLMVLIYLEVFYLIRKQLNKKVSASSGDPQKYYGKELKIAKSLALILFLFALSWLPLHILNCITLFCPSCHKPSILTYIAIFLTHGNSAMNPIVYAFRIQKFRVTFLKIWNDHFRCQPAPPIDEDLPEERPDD
Experimental: (§1) Inhibition binding assays were performed using 0.2 μg of membranes prepared from […] cells infected with BacMam human adenosine A2A receptor or 1.4 μg of membranes […] receptor. Membranes were incubated in 50 mM Tris-HCl (HEK293-hA2A; pH 7.4) or 50 mM Tris-HCl, 100 mM NaCl, 10 mM MgCl2 (CHO-hA1; pH 7.4) in the presence of varying concentrations of test compound and 1 nM [3H]ZM241385 (HEK293-hA2A) or [3H]DPCPX (CHO-hA1) at 25° C. for 1 h. The assay was then terminated by rapid filtration onto GF/B grade Unifilter plates using a TomTec cell harvester, followed by 5×0.5 ml washes with ddH2O. Nonspecific binding was defined in the presence of 1 μM CGS15943 (HEK293-hA2A) or 1 μM DPCPX (CHO-hA1). Bound radioactivity was determined by liquid scintillation counting and inhibition curves were analysed using a four-parameter logistic equation.

Adenosine receptor A2a = Adenosine receptor A2a (Homo sapiens, UniProt P29274); experiment: Adenosine Receptor Binding Assay
Sequence of Adenosine receptor A2a (P29274 whole entry): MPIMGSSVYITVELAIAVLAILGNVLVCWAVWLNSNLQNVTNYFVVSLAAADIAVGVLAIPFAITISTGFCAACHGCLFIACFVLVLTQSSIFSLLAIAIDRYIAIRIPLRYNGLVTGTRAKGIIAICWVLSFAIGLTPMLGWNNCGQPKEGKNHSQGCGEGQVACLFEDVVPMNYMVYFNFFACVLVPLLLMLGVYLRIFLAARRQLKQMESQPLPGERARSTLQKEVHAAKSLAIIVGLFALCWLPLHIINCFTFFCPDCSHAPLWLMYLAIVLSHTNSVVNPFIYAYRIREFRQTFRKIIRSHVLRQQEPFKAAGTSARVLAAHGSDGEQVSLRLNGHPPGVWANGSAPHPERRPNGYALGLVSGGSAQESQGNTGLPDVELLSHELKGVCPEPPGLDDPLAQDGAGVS
Experimental: as §1

Compound	Ki (Adenosine receptor A1) [nM]	Ki (Adenosine receptor A2a) [nM]
C[C@@H]1CN(c2c(-c3ccccc3)nc(N)n3c(=O)n(CCCF)nc23)C[C@H](C)O1 [US12552799, Example 1-2]	> 3160	158
C[C@@H]1CN(c2c(-c3ccccc3)nc(N)n3c(=O)n(C[C@@H]4CCCN4C)nc23)C[C@H](C)O1 [US12552799, Example 1-7]	2000	158
C[C@@H]1CN(c2c(-c3ccccc3)nc(N)n3c(=O)n(C[C@H]4CCCO4)nc23)C[C@H](C)O1 [US12552799, Example 1-8]	> 2000	10
Cc1cc(-c2c(-c3ccccc3)nc(N)n3c(=O)n(Cc4ccc(F)cn4)nc23)cc(C)c1O [US12552799, Example 3-1]	100	0.631

Results, then the compound that gave them:

Ki (Adenosine receptor A1) [nM]	Ki (Adenosine receptor A2a) [nM]	Compound
> 3160	63.1	CCCn1nc2c(N3C[C@@H](C)O[C@@H](C)C3)c(-c3ccccc3)nc(N)n2c1=O [US12552799, Example 1-4]
7.94	0.079	Cc1ocnc1Cn1nc2c(-c3cc(C)c4ncoc4c3)c(-c3ccccc3)nc(N)n2c1=O [US12552799, Example 4-6]
63.1	0.158	Cc1cc(-c2c(-c3ccc(F)cc3)nc(N)n3c(=O)n(Cc4ccc(Cl)cn4)nc23)cc2ocnc12 [US12552799, Example 4-2]
25.1	0.251	Cc1cc(-c2c(-c3ccccc3)nc(N)n3c(=O)n(Cc4ccc(F)cn4)nc23)cc2c1N=NC2 [US12552799, Example 4-4]
